Experimental data taken from ChEMBL document CHEMBL1144060, “Tetrin C, a new glycosylated polyene macrolide antibiotic produced by Streptomyces sp. GK9244” (J Nat Prod, 1999).
Converted amounts (≈) assume the structure as drawn.

Experiments:
Umbelopsis ramanniana = assay: Antifungal activity against Mortierella ramanniana; type: functional
Penicillium chrysogenum = assay: Antifungal activity against Penicillium chrysogenum; type: functional
Candida albicans = assay: Antifungal activity against Candida albicans; type: functional
P388 = assay: Cytotoxicity against mouse P388 cells; type: functional, cell-based

- MIC (Umbelopsis ramanniana): 5 µg/mL (≈ 7.21 µM)
- MIC (Penicillium chrysogenum): 10 µg/mL (≈ 14.4 µM)
- MIC (Candida albicans): 10 µg/mL (≈ 14.4 µM)
Structure (SMILES): C[C@H]1/C=C/C=C/C=C/C=C/[C@H](O[C@@H]2O[C@H](C)[C@@H](O)[C@H](N)[C@@H]2O)C[C@@H]2O[C@](O)(C[C@@H](O)CC(=O)C(=O)/C=C/C(=O)O[C@@H]1C)C[C@H](O)[C@H]2C(=O)O [TETRIN C]
- IC50 (P388): 4.6 µg/mL (≈ 6.63 µM)
